# Values of other authors in US20240158516A1, “METHODS FOR THE TREATMENT OF THYROID EYE DISEASE” (Horizon Therapeutics Ireland DAC, priority 2021, published 2024).
# Where two headings read alike, the source gives them in different places.
# B1: Figitumumab: IGF-1R inhibitor antibody; HC SEQ ID NO:39, LC SEQ ID NO:40 (antibody)
# heavy: EVQLLESGGGLVQPGGSLRLSCTASGFTFSSYAMNWVRQAPGKGLEWVSAISGSGGTTFYADSVKGRFTISRDNSRTTLYLQMNSLRAEDTAVYYCAKDLGWSDSYYYYYGMDVWGQGTTVTVSSASTKGPSVFPLAPCSRSTSESTAALGCLVKDYFPEPVTVSWNSGALTSGVHTFPAVLQSSGLYSLSSVVTVPSSNFGTQTYTCNVDHKPSNTKVDKTVERKCCVECPPCPAPPVAGPSVFLFPPKPKDTLMISRTPEVTCVVVDVSHEDPEVQFNWYVDGVEVHNAKTKPREEQFNSTFRVVSVLTVVHQDWLNGKEYKCKVSNKGLPAPIEKTISKTKGQPREPQVYTLPPSREEMTKNQVSLTCLVKGFYPSDIAVEWESNGQPENNYKTTPPMLDSDGSFFLYSKLTVDKSRWQQGNVFSCSVMHEALHNHYTQKSLSLSPGK
# light: DIQMTQFPSSLSASVGDRVTITCRASQGIRNDLGWYQQKPGKAPKRLIYAASRLHRGVPSRFSGSGSGTEFTLTISSLQPEDFATYYCLQHNSYPCSFGQGTKLEIKRTVAAPSVFIFPPSDEQLKSGTASVVCLLNNFYPREAKVQWKVDNALQSGNSQESVTEQDSKDSTYSLSSTLTLSKADYEKHKVYACEVTHQGLSSPVTKSFNRGEC
# modifications: Figitumumab Heavy Chain (HC); Figitumumab Light Chain (LC)
# Tests used:
# [1] = system: patients with moderate-to-severe active TED; conditions: cited from earlier work
# IGF-1 R = IGF-1 R (Homo sapiens, UniProt P08069); conditions: cited from earlier work
# IGF-1 R, sequence (P08069 31-1367): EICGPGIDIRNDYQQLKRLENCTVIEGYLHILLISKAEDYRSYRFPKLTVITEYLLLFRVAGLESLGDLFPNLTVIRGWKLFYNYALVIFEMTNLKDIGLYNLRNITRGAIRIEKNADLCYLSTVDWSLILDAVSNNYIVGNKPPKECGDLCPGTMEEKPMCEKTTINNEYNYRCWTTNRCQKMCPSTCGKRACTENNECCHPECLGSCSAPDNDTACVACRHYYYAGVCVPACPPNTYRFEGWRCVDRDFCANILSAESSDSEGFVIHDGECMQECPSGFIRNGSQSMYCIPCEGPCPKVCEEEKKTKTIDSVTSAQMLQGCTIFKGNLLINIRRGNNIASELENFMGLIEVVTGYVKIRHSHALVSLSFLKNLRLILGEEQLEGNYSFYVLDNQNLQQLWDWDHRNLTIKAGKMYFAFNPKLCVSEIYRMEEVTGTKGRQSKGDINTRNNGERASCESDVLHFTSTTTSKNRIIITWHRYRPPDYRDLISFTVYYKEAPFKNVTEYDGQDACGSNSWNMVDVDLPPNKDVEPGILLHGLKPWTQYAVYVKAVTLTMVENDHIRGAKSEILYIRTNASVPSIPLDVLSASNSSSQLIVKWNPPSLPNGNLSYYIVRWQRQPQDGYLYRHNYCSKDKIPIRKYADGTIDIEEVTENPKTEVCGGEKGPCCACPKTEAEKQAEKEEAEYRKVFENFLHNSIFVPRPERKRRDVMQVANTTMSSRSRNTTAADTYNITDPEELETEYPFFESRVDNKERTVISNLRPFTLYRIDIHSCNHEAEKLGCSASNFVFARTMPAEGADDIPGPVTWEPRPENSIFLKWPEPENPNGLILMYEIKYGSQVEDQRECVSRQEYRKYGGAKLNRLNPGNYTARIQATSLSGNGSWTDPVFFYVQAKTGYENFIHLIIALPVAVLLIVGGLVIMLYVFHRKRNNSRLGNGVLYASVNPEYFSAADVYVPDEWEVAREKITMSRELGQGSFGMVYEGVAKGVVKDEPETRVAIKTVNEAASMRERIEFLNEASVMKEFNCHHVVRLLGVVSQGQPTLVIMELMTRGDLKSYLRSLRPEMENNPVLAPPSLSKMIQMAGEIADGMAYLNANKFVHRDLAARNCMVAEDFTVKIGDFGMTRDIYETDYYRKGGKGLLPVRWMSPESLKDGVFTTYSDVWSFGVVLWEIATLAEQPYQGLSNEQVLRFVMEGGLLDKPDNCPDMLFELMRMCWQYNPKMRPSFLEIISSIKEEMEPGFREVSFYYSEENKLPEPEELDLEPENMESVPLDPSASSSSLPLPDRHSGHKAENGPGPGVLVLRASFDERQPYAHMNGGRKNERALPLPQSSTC
# [2] = cited from earlier work
# [3] = cited from earlier work; remark: listed apart in the source
# tumor = conditions: in vivo; cited from earlier work
# IGF-IR [4] = biological target: T1, IGF-IR (Homo sapiens, UniProt P08069); conditions: cited from earlier work
# T1 sequence (P08069 31-1367): as above
# IGF-IR [5] = biological target: T1, IGF-IR; conditions: cited from earlier work; remark: listed apart in the source
# patients with GO (TED) = conditions: vs. 0.15 mm in the placebo group; cited from earlier work
molecule,measurement,setting,value
rituximab: a CD20+ B cell-depleting agent,reduction in proptosis compared with the ivGC results,[1]; compared with 0.6 mm mean reduction under ivGCs,not different
same,effects of rituximab versus placebo,"[1]; first trial, 2015 monocenter RCT",negative
same,effects of rituximab versus ivGCs,"[1]; second trial, 2015 monocenter RCT",positive
COc1cc(N2CCC(N)CC2)ccc1Nc1ncc(Cl)c(-c2c[nH]c3ccccc23)n1 [AZD3463],inhibition of IGF-1 R,IGF-1 R,potent ALK/IGF-1 R inhibitor
CN1CCC(Nc2cc(Cl)cc3c(S(=O)(=O)N4CCO[C@H](COc5ccccc5)C4)c(C(N)=O)[nH]c23)CC1 [PL-225B],T1/2,[2]; oral,Oral; 21d
same,inhibition of IGF-1 R,IGF-1 R,selectively inhibits IGF-1 R
COCCN1CCN(CCn2ccc(Nc3ncc4c(n3)[C@@H](C)Cc3nn(C)c(-c5ccccc5)c3-4)n2)CC1 [BI885578],in vivo half-life,[3]; as a result of rapid metabolic clearance,short
same,intestinal absorption,[3]; in vivo,rapid
same,metabolic clearance,[3]; in vivo,rapid
N#CCc1cnc(-c2ccc3ccccc3n2)n1-c1ccnc(NC2CCCNC2)n1 (stereo not shown) [BI893923],anti-tumor efficacy,tumor,anti-tumor efficacy
same,tolerability,tumor,good
C[C@]1(O)C[C@@H](c2nc(-c3ccc4ccc(-c5ccccc5)nc4c3)c3c(N)nccn32)C1 [Linsitinib],T1/2,[2]; oral,oral; 2-4 hrs
Nc1ncnc2c1c(-c1ccc3[nH]c(Cc4ccccc4Cl)nc3c1)nn2[C@H]1CC[C@H](N2CCOCC2)CC1 [Example A-928605],inhibition of IGF-IR on the purified enzyme,IGF-IR [4],potent inhibitor
same,inhibition of intracellular IGF-IR phosphorylation,IGF-IR [5],potent inhibitor
"Dalotuzumab: IGF-1R inhibitor antibody; HC SEQ ID NO:7, LC SEQ ID NO:8",T1/2,"[2]; in vivo, iv",IV;5 days
"teprotumumab: fully human IGF-IR-inhibitory monoclonal antibody approved for TED; VH SEQ ID NO:90, VL SEQ ID NO:91",T1/2,[2]; IV,IV; 8 days
same,exophthalmos decreased by an average of,patients with GO (TED),2.46 mm
"Cixutumumab: IGF-1R inhibitor antibody; HC SEQ ID NO:55, LC SEQ ID NO:56",T1/2,[2]; IV,IV; 5 days
B1,T1/2,[2]; IV,IV; 20 days
